Assay results published in patent US12606528B2, “Methods and materials for inhibiting NF-kB activity” (University of Pittsburgh - Of the Commonwealth System of …, priority 2019, dated 2026).
Like-named read-outs stand apart in the source and are kept apart here.

What was measured:
[1] = system: NF-κB; experiment: NF-κB assay: THP1-NF-κB-LUC cells, LPS-stimulated secreted luciferase; assay type: cell-based; conditions: THP1-NF-κB-LUC cells, read-out: IC50 (NF-κB assay)
Procedure, shortened: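 THP1-NF-κB-LUC cells (25k/well) were pretreated with compounds for 2 h, then stimulated with LPS (10 ng/mL) for 18 h. Secreted luciferase was measured and normalized to vehicle, and IC50 was fitted from the concentration series.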

[2] = system: TNF release; experiment: TNF assay: TNF release from LPS-stimulated human PBMCs (TNF ELISA); assay type: cell-based; conditions: PBMC, read-out: IC50 (TNF assay)
Procedure, shortened: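 Human PBMCs at 10k/well pretreated with compound dilutions 2 h, then stimulated with LPS (10 ng/mL) for 18 h. TNF in supernatants quantified by ELISA; IC50 for inhibition of TNF release fitted from concentration–response.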

[3] = compounds 2 hours before LPS (10 ng/mL) for 18 hours, secreted luciferase
[4] = human PBMCs, compounds 2 hours before LPS (10 ng/ml) for 18 hours, supernatant TNF ELISA
[5] = LPS-stimulated human PBMCs, TNF ELISA

IC50 [1, 3] [µM]	IC50 [2, 4] [µM]	IC50 ([1]; LPS-stimulated) [µM]	IC50 [2, 5] [µM]	SMILES
		1 to 10	> 10	O=S(=O)(c1ccc(F)cc1)c1nc(-c2ccccc2)[nH]c1[S+]([O-])C1CCCCC1 (stereo not drawn) [BC19586]
> 10	> 10			Cc1ccc(S(=O)(=O)c2ccc3c(=O)[nH]ccc3c2)cc1 [BC19518]
		> 10	> 10	C[S+]([O-])c1sc(C2CCCCC2)nc1S(=O)(=O)c1ccc(Cl)cc1 (stereo not drawn) [BC19640]
> 10	> 10			O=c1[nH]ccc2cc(S(=O)(=O)c3cccc(F)c3)ccc12 [BC19520]
0.1 to 1	> 10			CCC1Oc2cc(S(=O)(=O)Nc3ccc(Cl)cc3)c(Br)cc2N(C)C1=O (stereo not drawn) [BC19930]
		1 to 10	1 to 10	COCC[S+]([O-])c1sc(-c2cccc(F)c2)nc1S(=O)(=O)c1ccc(F)cc1 (stereo not drawn) [BC19599]
< 0.1	> 10			CCC1Oc2cc(S(=O)(=O)Nc3ccc(Cl)cc3)c(Br)cc2NC1=O (stereo not drawn) [BC19286]
		1 to 10	> 10	CC(C)[S+]([O-])c1[nH]c(-c2ccccc2)nc1S(=O)(=O)c1ccc(F)cc1 (stereo not drawn) [BC19523]
< 0.1	> 10			CCC1Oc2c(cc(Cl)cc2S(=O)(=O)Nc2ccc(Cl)cc2)NC1=O (stereo not drawn) [BC19740]
		> 10	> 10	COCC[S+]([O-])c1sc(C2CCCCC2)nc1S(=O)(=O)c1ccc(Cl)cc1 (stereo not drawn) [BC19642]
		< 0.1	> 10	O=C(NCCO)Nc1ccc2nc(-c3ccc(F)cc3)c(-c3ccc(F)cc3)nc2c1 [BC19566]
		> 10	1 to 10	CC(C)[S+]([O-])c1sc(-c2ccc(F)cc2)nc1S(=O)(=O)c1ccc(Cl)cc1 (stereo not drawn) [BC19415]
< 0.1	> 10			CS(=O)(=O)c1cc2c(c(S(=O)(=O)Nc3ccc(F)c(F)c3)c1)OCC(=O)N2 [BC19481]
		1 to 10	1 to 10	COCCS(=O)(=O)c1sc(-c2ccc3ccccc3c2)nc1S(=O)(=O)c1ccc(Cl)cc1 [BC19678]
		0.1 to 1	> 10	CN1CCN(C(=O)c2cc3nc(-c4ccc(F)cc4)c(-c4ccc(F)cc4)nc3cn2)CC1 [BC19666]
< 0.1	> 10			CCS(=O)(=O)c1cc2c(c(S(=O)(=O)Nc3ccc(Cl)cc3)c1)OCC(=O)N2 [BC19491]
		1 to 10	> 10	CS(=O)(=O)c1[nH]c(-c2ccccc2)nc1S(=O)(=O)c1ccc(F)cc1 [BC19522]
		1 to 10	1 to 10	CCC[S+]([O-])c1sc(-c2cccc(F)c2)nc1S(=O)(=O)c1ccc(F)cc1 (stereo not drawn) [BC19590]
		1 to 10	1 to 10	CCCS(=O)(=O)c1sc(-c2cccc(F)c2)nc1S(=O)(=O)c1ccc(Cl)cc1 [BC19475]

Second part, the compound before the results:

SMILES	IC50 [1, 3] [µM]	IC50 [2, 4] [µM]	IC50 ([1]; LPS-stimulated) [µM]	IC50 [2, 5] [µM]
CCC1Oc2c(cc(Br)cc2S(=O)(=O)NC2CCCCC2)NC1=O (stereo not drawn) [BC19233]	1 to 10	1 to 10		
CC(C)CC1Oc2cc(S(=O)(=O)Nc3ccc(OC(F)(F)F)cc3)c(Br)cc2NC1=O (stereo not drawn) [BC19758]	0.1 to 1	> 10		
CC1Oc2c(cc(Cl)cc2S(=O)(=O)Nc2ccc(C(C)C)cc2)NC1=O (stereo not drawn) [BC19705]	< 0.1	> 10		
CCc1cccc(NS(=O)(=O)c2cc3c(cc2Br)NC(=O)C(CC(C)C)O3)c1 (stereo not drawn) [BC19772]	0.1 to 1	> 10		
O=C(O)c1cc2c(c(NS(=O)(=O)c3ccc(F)c(F)c3)c1)N1CCCC1C(=O)N2 (stereo not drawn) [BC19917]			> 10	> 10
CC1Oc2cc(S(=O)(=O)Nc3ccc(C#N)cc3)c(Br)cc2N(C)C1=O (stereo not drawn) [BC19920]	0.1 to 1	> 10		
O=C1CCOc2c(cc(Br)cc2S(=O)(=O)Nc2ccc(OC(F)(F)F)cc2)N1 [BC19648]			< 0.1	> 10
CN1CC(=O)Nc2ccc(S(=O)(=O)N3CCCC3)cc21 [BC19181]			> 10	> 10
O=C1NCCOc2c1cc(Br)cc2S(=O)(=O)Nc1ccc(F)cc1Cl [BC19613]			> 10	> 10
CC(C)CC1Oc2c(cc(Br)cc2S(=O)(=O)Nc2ccc(OC(F)(F)F)cc2)NC1=O (stereo not drawn) [BC19757]	< 0.1	> 10		
CCc1ccc(NS(=O)(=O)c2cc3c(cc2Br)NC(=O)C(C)O3)cc1 (stereo not drawn) [BC19216]	< 0.1	> 10		
CCC1Oc2c(cc(Br)cc2S(=O)(=O)NC2CCC(C(C)(C)C)CC2)NC1=O (stereo not drawn) [BC19379]	> 10	> 10		
CCc1cccc(NS(=O)(=O)c2cc(Br)cc3c2OCCNC3=O)c1 [BC19609]			1 to 10	> 10
CCC1Oc2cc(S(=O)(=O)Nc3ccc(C(C)C)cc3)c(Br)cc2N(C)C1=O (stereo not drawn) [BC19934]	0.1 to 1	1 to 10		
